Data on one compound can be found in PMC12377485, “Targeting the ANXA8–SP1–PPA1 Axis to Modulate TCA Cycle and Matrix Deposition in Diffuse-Type Gastric Cancer” (Research, 2025).

For this test, the target named is T1, ANXA8 (Homo sapiens, UniProt P13928).
T1 construct: commercial recombinant protein (MCE); His tag implied by RED-tris-NTA labelling
T1 sequence (P13928 1-327): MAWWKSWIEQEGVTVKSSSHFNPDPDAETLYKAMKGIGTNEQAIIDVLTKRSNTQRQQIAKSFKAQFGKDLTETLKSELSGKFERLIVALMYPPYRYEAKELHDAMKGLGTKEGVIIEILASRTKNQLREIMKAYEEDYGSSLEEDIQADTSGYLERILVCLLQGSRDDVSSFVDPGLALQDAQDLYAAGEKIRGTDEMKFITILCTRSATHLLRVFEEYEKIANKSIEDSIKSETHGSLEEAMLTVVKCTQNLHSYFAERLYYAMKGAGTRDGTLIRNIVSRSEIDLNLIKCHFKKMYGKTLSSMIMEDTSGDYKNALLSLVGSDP
The test can be described thus: microscale thermophoresis (Monolith NT.[…]), one-site fit. The class given is binding. (In general: Microscale thermophoresis detects binding through changes in fluorescence in a small temperature gradient.)

Regarding `CCCCNc1ncc2c(-c3ccc(CN4CCN(C)CC4)cc3)cn([C@H]3CC[C@H](O)CC3)c2n1` [UNC2025], binding was characterised by a dissociation constant (Kd) of 83.5 nM.
